ChEMBL document CHEMBL5665443, “Enzyme Inhibitor Single Concentration assay results for EUbOPEN Chemogenomics Library” (2024)

Tests used:
[1] = target: Methyl-CpG-binding domain protein 4 (Homo sapiens) (UniProt O95243); details: Compound Concentration 10.0 uM, Hit No;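 note: MBD4 activity read as fluorescence at 594 nm from cleavage and release of a quenched duplex DNA oligonucleotide, with APE1 coupled to incise the strand and raise turnover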
Description: Inhibition of MBD4 by quantifying inhibition of MBD4-mediated cleavage and dissociation of quenched duplex DNA oligonucleotides, measured as fluorescence at 594 nm. To generate a functional strand incision and increase turn-over this assay is coupled to APE1.

[2] = target: T1, Adenine DNA glycosylase (Homo sapiens) (UniProt Q9UIF7); details: Compound Concentration 10.0 uM, Hit No;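 note: human MUTYH activity read as 594 nm fluorescence from cleavage and release of a quenched DNA duplex, coupled with APE1 for strand incision, lower signal meaning inhibition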
T1 sequence (whole entry): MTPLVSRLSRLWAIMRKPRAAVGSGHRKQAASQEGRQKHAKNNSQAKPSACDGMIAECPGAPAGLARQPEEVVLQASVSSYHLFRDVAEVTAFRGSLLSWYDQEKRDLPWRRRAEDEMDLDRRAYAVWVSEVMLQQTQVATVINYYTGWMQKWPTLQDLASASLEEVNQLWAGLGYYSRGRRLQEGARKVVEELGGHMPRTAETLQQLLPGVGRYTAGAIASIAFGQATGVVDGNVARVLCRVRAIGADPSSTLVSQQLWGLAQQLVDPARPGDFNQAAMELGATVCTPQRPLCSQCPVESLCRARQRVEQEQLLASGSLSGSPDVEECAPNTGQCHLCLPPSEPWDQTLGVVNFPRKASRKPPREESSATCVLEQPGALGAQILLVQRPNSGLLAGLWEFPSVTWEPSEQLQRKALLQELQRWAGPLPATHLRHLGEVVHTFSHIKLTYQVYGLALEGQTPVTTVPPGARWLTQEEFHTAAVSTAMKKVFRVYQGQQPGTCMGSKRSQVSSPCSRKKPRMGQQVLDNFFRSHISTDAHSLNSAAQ
Description: Inhibition of MUTYH by quantifying inhibition of MUTYH-mediated cleavage and dissociation of quenched duplex DNA oligonucleotides, measured as fluorescence at 594 nm. To generate a functional strand incision and increase turn-over this assay is coupled to APE1.

[3] = target: Endonuclease 8-like 1 (Homo sapiens) (UniProt Q96FI4); details: Compound Concentration 10.0 uM, Hit No;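 note: fluorescence at 594 nm from quenched duplex DNA oligonucleotides released by NEIL1 cleavage and strand separation, reported as reduction of this enzyme activity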
Sequence of Endonuclease 8-like 1 (Homo sapiens) (Q96FI4 whole entry): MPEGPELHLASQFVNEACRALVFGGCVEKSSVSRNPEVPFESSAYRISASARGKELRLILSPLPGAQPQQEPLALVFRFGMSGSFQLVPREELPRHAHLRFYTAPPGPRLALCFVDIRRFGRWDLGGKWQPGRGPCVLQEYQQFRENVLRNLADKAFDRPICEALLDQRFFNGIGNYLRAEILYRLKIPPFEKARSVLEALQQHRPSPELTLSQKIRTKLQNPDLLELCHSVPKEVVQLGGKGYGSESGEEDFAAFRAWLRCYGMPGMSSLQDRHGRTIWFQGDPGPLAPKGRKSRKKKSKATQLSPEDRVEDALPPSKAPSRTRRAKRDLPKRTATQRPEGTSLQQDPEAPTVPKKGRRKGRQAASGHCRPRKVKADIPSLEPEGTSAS
Description: Inhibition of NEIL1 by quantifying inhibition of NEIL1-mediated cleavage and dissociation of quenched duplex DNA oligonucleotides, measured as fluorescence at 594 nm.

[4] = target: T2, Endonuclease 8-like 2 (Homo sapiens) (UniProt Q969S2); details: Compound Concentration 10.0 uM;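 note: fluorescence at 594 nm reports NEIL2 cutting and release of a quenched double-stranded DNA oligo substrate, reduced signal read as inhibition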
T2 sequence (whole entry): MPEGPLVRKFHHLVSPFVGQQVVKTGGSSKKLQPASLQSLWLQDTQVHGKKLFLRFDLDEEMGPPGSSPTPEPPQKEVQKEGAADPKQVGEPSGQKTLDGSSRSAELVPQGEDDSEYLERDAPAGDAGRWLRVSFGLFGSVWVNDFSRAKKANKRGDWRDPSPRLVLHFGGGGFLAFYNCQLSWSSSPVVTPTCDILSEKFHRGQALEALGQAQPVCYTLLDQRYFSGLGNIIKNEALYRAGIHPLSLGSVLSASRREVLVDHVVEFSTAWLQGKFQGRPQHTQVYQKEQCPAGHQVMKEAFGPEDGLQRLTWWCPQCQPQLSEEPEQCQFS
Description: Inhibition of NEIL2 by quantifying inhibition of NEIL2-mediated cleavage and dissociation of quenched duplex DNA oligonucleotides, measured as fluorescence at 594 nm.

[5] = target: T3, Endonuclease III-like protein 1 (Homo sapiens) (UniProt P78549); details: Compound Concentration 10.0 uM, Hit No;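 note: enzyme assay tracking NTHL1 cutting and release of a quenched double-stranded DNA oligo substrate, read as fluorescence at 594 nm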
T3 sequence (whole entry): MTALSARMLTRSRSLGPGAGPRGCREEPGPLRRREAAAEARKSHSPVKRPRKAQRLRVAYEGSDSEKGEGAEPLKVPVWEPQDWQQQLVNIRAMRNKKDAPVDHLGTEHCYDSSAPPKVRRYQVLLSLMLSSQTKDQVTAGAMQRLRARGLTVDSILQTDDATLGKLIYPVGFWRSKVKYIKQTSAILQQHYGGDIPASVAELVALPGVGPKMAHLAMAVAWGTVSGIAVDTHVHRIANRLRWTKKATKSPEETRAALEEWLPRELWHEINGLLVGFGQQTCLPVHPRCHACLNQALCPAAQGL
Description: Inhibition of NTHL1 by quantifying inhibition of NTHL1-mediated cleavage and dissociation of quenched duplex DNA oligonucleotides, measured as fluorescence at 594 nm.

[6] = target: N-glycosylase/DNA lyase (Homo sapiens) (UniProt O15527); details: Compound Concentration 10.0 uM, Hit No;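 note: OGG1 cleavage of a quenched duplex DNA oligonucleotide, coupled to APE1 for strand incision, read as fluorescence at 594 nm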
Sequence of N-glycosylase/DNA lyase (Homo sapiens) (O15527 whole entry): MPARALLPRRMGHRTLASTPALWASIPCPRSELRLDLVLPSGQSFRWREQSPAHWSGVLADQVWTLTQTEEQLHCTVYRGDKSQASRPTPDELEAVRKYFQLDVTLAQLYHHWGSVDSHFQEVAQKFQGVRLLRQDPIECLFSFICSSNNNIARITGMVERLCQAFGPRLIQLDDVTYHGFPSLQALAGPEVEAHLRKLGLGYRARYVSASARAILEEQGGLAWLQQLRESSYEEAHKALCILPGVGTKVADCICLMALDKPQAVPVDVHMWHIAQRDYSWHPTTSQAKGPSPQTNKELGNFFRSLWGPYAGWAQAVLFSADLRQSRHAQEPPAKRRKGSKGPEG
Description: Inhibition of OGG1 by quantifying inhibition of OGG1-mediated cleavage and dissociation of quenched duplex DNA oligonucleotides, measured as fluorescence at 594 nm. To generate a functional strand incision and increase turn-over this assay is coupled to APE1.

[7] = target: T4, Single-strand selective monofunctional uracil DNA glycosylase (Homo sapiens) (UniProt Q53HV7); details: Compound Concentration 10.0 uM, Hit No;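 note: enzymatic SMUG1 assay coupled with APE1, reading fluorescence at 594 nm released when a quenched double-stranded DNA oligonucleotide substrate is cleaved and separated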
T4 sequence (whole entry): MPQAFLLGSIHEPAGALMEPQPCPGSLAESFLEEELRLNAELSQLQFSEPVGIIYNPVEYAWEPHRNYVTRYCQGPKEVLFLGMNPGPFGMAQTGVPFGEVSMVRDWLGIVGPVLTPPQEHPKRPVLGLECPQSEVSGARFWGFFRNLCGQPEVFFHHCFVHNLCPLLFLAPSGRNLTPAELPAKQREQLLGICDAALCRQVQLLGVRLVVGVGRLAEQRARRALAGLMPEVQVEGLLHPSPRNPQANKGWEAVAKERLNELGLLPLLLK
Description: Inhibition of SMUG1 by quantifying inhibition of SMUG1-mediated cleavage and dissociation of quenched duplex DNA oligonucleotides, measured as fluorescence at 594 nm. To generate a functional strand incision and increase turn-over this assay is coupled to APE1.

[8] = target: G/T mismatch-specific thymine DNA glycosylase (Homo sapiens) (UniProt Q13569); details: Compound Concentration 10.0 uM, Hit No;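 note: human TDG cleavage of quenched duplex DNA oligonucleotides coupled to APE1, strand release read as fluorescence at 594 nm, inhibition of TDG activity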
Sequence of G/T mismatch-specific thymine DNA glycosylase (Homo sapiens) (Q13569 whole entry): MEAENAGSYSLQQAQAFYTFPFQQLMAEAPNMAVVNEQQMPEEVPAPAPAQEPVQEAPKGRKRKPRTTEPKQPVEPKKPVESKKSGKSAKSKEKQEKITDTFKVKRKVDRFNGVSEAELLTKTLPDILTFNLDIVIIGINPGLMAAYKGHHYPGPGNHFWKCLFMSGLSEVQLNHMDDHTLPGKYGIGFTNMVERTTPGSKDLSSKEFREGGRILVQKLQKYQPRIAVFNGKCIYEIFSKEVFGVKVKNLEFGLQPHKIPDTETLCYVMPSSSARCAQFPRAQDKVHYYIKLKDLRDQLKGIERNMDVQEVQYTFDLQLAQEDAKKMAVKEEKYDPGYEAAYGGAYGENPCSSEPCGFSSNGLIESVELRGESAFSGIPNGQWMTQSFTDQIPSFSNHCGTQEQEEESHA
Description: Inhibition of TDG by quantifying inhibition of TDG-mediated cleavage and dissociation of quenched duplex DNA oligonucleotides, measured as fluorescence at 594 nm. To generate a functional strand incision and increase turn-over this assay is coupled to APE1.

[9] = target: Uracil-DNA glycosylase (Homo sapiens) (UniProt P13051); details: Compound Concentration 10.0 uM, Hit No;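 note: UNG excision on a quenched double-stranded DNA oligo probe, with APE1 added for strand incision and turnover, read as fluorescence at 594 nm as strands separate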
Sequence of Uracil-DNA glycosylase (Homo sapiens) (P13051 whole entry): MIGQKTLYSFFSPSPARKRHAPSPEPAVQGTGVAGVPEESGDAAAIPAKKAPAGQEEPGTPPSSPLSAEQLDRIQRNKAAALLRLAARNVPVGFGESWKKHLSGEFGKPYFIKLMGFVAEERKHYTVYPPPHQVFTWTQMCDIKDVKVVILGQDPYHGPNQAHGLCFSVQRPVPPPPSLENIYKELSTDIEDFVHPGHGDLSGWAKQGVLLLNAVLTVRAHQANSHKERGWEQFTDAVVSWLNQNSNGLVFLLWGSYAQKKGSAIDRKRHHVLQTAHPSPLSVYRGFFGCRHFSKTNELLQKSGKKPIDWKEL
Description: Inhibition of UNG by quantifying inhibition of UNG-mediated cleavage and dissociation of quenched duplex DNA oligonucleotides, measured as fluorescence at 594 nm. To generate a functional strand incision and increase turn-over this assay is coupled to APE1.

Sequence of Methyl-CpG-binding domain protein 4 (Homo sapiens) (O95243 whole entry, the tested form may be a part): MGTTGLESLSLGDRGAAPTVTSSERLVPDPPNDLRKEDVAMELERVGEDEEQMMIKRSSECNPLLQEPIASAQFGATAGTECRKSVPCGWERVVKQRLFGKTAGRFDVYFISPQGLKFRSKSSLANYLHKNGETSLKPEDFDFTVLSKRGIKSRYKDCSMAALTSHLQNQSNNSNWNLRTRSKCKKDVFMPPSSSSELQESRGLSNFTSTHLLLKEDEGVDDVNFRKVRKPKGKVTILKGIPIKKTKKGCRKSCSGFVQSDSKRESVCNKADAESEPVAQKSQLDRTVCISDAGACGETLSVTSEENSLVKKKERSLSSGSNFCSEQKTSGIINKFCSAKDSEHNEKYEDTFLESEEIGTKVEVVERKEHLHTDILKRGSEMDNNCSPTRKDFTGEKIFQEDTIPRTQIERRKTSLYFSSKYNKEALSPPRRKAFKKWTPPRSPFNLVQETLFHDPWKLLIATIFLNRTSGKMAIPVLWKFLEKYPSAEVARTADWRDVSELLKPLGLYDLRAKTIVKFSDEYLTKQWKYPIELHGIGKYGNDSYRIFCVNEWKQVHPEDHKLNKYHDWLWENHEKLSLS

SMILES | inhibition [1] [%] | inhibition [2] [%] | inhibition [3] [%] | inhibition ([4]; Hit Yes) [%] | inhibition [5] [%] | inhibition [6] [%] | inhibition [7] [%] | inhibition [8] [%] | inhibition [9] [%] | inhibition ([4]; Hit No) [%]
COc1cc2nc(N3CCN(C(=O)COc4c(OC)cccc4C(C)C)CC3)nc(N)c2cc1OC | -7.62 | -1.51 | 10.1 | 50.6 | 17.9 | -9.97 | -5.21 | 4.22 | 3.87 | 
CN(CCOc1ccc(C[C@H](Nc2ccccc2C(=O)c2ccccc2)C(=O)O)cc1)c1ccccn1 | 67 | -3.55 | 5.16 |  | -4.57 | 24.7 | 8.44 | 30.8 | -0.00636 | 4.36
CCOP(=O)(OCC)C(=Cc1cc(C(C)(C)C)c(O)c(C(C)(C)C)c1)P(=O)(OCC)OCC | 49.5 | 14.5 | -3.17 |  | 12.5 | -1.84 | 3.52 | 58.6 | -4.58 | 11.2
CCOC(=O)Nc1ccc2c(c1)N(C(=O)CN(CC)CC)c1ccccc1CC2 | 65.5 | -4.04 | -8.02 |  | 4.63 | -1.34 | 15.8 | 97.9 | -1.75 | -9.67
CN1CCN(C(=O)c2ccc3cc2OCCOCCNc2ccn4ncc-3c4n2)CC1 | 17.6 | -5.82 | 1.85 |  | -5.49 | 2.08 | 13.6 | 38.5 | 1.81 | -5.69
O=C(NNS(=O)(=O)c1ccccc1F)c1cc(F)cc(-c2ccccn2)c1 | 80.8 | 3.72 | 0.316 |  | 11.9 | 3.57 | 15.4 | 49.9 | 6.14 | 3.34
O=c1[nH]c2ccccc2n1CCCN1CCN(C(c2ccccc2)c2ccccc2)CC1 | 57.5 | 1.43 | -7.26 |  | -3.26 | 10.8 | 20.2 | 97.2 | 4.47 | 5.38
O=C(O)C1CN(Cc2ccc(OCc3ccc(Cl)c(Cl)c3)cc2)C1 | 25 | 19.2 | 5.13 |  | 10.7 | -0.266 | 12.8 | 18.1 | -2.44 | -3.23
COc1ccccc1-c1cc(Nc2cccc(CS(N)(=O)=O)c2)ncn1 | -4.72 | 4.56 | -4.75 |  | 7.06 | 3.23 | 19.3 | 35.8 | 3.59 | 4
CC(=O)Nc1nc(CN2CCC[C@H](Cc3cc(C)nc(C)c3)C2)cs1 | 81.4 | 17.8 | 1.68 |  | 9.23 | 13.6 | 19 | 45.8 | 7.98 | 3.85
